Test results as given in the NIST ThermoML archive (doi:10.1016/j.fluid.2017.03.021).
± gives the expanded uncertainty stated by the source.

Columns and labels:
[1] = 101.33 kPa, Liquid; for speed of sound: Sing-around technique in a fixed-path interferometer; for mass density: Vibrating tube method
[2] = molar heat capacity at constant pressure; conditions: 101.33 kPa, Liquid, DSC

CCCC[n+]1ccn(C2CCCC2)c1.O=S(=O)([N-]S(=O)(=O)C(F)(F)F)C(F)(F)F
Conditions	mass density, [1] [kg/m3]	molar heat capacity at constant pressure, [2] [J/K/mol]	speed of sound, [1] [m/s]
287.15 K	1384.9 ± 10	–	1298.1 ± 5
289.15 K	1383.1 ± 10	–	1293.1 ± 5
291.15 K	1381.2 ± 10	–	1288.1 ± 5
293.15 K	1379.4 ± 10	648.54 ± 25	1283.2 ± 5
294.15 K	–	649.39 ± 25	–
295.15 K	1377.5 ± 10	650.01 ± 25	1278.3 ± 5
296.15 K	–	650.62 ± 25	–
297.15 K	1375.7 ± 10	651.28 ± 25	1273.4 ± 5
298.15 K	–	651.99 ± 25	–
299.15 K	1373.8 ± 10	652.8 ± 25	1268.6 ± 5
300.15 K	–	653.46 ± 25	–
301.15 K	1372 ± 10	654.08 ± 25	1263.8 ± 5
302.15 K	–	654.84 ± 25	–
303.15 K	1370.2 ± 10	655.4 ± 25	1259 ± 5
304.15 K	–	656.21 ± 25	–
305.15 K	1368.4 ± 10	657.01 ± 25	1254.2 ± 5
306.15 K	–	657.63 ± 25	–
307.15 K	1366.5 ± 10	658.43 ± 26	1249.4 ± 5
308.15 K	–	659.14 ± 26	–
309.15 K	1364.7 ± 10	659.9 ± 26	1244.7 ± 5
310.15 K	–	660.66 ± 26	–
311.15 K	1362.9 ± 10	661.42 ± 26	1240 ± 5
312.15 K	–	662.22 ± 26	–
313.15 K	1361.1 ± 10	663.07 ± 26	1235.3 ± 5
314.15 K	–	663.88 ± 26	–
315.15 K	1359.3 ± 10	664.73 ± 26	1230.6 ± 5
316.15 K	–	665.35 ± 26	–
317.15 K	1357.5 ± 10	666.15 ± 26	1226 ± 5
318.15 K	–	666.77 ± 26	–
319.15 K	1355.7 ± 10	667.43 ± 26	1221.4 ± 5
320.15 K	–	668.19 ± 26	–
321.15 K	1353.9 ± 10	668.94 ± 26	1216.7 ± 5
322.15 K	–	669.75 ± 26	–
323.15 K	1352.1 ± 10	670.51 ± 26	1212.1 ± 5
324.15 K	–	671.26 ± 26	–
325.15 K	1350.3 ± 10	672.02 ± 26	1207.6 ± 5
326.15 K	–	672.78 ± 26	–
327.15 K	1348.5 ± 9.9	673.49 ± 26	1203 ± 5
328.15 K	–	674.44 ± 26	–
329.15 K	1346.7 ± 9.9	675.15 ± 26	1198.5 ± 5
330.15 K	–	675.95 ± 26	–
331.15 K	1344.9 ± 9.9	676.8 ± 26	1193.9 ± 5
332.15 K	–	677.56 ± 26	–
333.15 K	1343.1 ± 9.8	678.41 ± 26	1189.4 ± 5
334.15 K	–	679.22 ± 26	–
335.15 K	1341.3 ± 9.8	680.21 ± 26	1185 ± 5
336.15 K	–	680.88 ± 26	–
337.15 K	1339.6 ± 9.8	681.63 ± 26	1180.5 ± 5
338.15 K	–	682.34 ± 26	–
339.15 K	1337.8 ± 9.8	683.01 ± 26	1176.1 ± 5
340.15 K	–	683.91 ± 26	–
341.15 K	1336 ± 9.7	684.76 ± 27	1171.7 ± 5
342.15 K	–	685.47 ± 27	–
343.15 K	1334.3 ± 9.7	686.27 ± 27	1167.3 ± 5
344.15 K	–	686.94 ± 27	–
345.15 K	–	687.65 ± 27	–
346.15 K	–	688.45 ± 27	–
347.15 K	–	689.07 ± 27	–
348.15 K	–	690.11 ± 27	–
